Laboratory results: patent US12522628B2, “Aryl glucoside derivative and use thereof in drug” (SHANGHAI ZHEYE BIOTECHNOLOGY CO. LTD., priority 2020, dated 2026)
pIC50: −log10 of the molar value.

Tests used:
[1] = Pharmacokinetic study in rats; assay type: in vivo, SD rats; conditions: 10 mg/kg, oral gavage; for bioavailability: male, SD, rat, plasma, po, read-out: Absolute Bioavailability(F %)
Protocol: • Experimental animals: SPF male SD rats; • Dosage and method of administration: 10 mg/kg, oral gavage.
Research compound: Dapagliflozin, the compound of Example 5, the compound of Example 7, the compound of Comparative Example 6; • Test method: Before administration (0), and 1, 4, 8, and 24 hours after administration, 0.2 ml of blood was collected from orbital venous plexus, anticoagulated with heparin, and plasma was collected.

[2] = biological target: T1, SGLT1 (Homo sapiens, UniProt P13866); assay: SGLT1 Inhibitor Activity Experiment 1; assay type: cell-based
T1 sequence (P13866 1-664): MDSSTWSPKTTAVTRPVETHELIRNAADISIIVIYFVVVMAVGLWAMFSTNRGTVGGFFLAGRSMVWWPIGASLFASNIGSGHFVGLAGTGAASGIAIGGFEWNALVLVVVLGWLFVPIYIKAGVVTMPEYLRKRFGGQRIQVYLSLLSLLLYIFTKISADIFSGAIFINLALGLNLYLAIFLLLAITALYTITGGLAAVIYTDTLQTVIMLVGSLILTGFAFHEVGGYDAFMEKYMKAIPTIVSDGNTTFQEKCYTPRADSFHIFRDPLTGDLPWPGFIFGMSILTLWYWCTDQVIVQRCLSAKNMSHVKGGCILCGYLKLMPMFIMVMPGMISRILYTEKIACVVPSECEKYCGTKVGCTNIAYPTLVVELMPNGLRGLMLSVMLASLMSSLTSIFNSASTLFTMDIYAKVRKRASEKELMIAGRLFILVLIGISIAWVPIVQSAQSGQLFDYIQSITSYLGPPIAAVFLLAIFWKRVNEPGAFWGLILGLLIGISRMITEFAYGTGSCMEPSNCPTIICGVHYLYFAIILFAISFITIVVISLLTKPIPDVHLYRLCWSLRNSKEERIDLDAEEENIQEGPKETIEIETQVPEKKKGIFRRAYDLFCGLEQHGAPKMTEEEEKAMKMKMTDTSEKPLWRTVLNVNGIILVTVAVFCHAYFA
Protocol: The inhibitory activity of SGLT1 was tested with reference to the method described in document (Journal of Medicinal Chemistry 2017, 60, 710-721, Discovery of LX2761, a Sodium-Dependent Glucose Cotransporter 1 (SGLT1) Inhibitor Restricted to the Intestinal Lumen, for the Treatment of Diabetes).

[3] = biological target: T1, SGLT1; assay: HSGLT1 inhibitor activity experiment: 2-NBDG uptake by HEK293 cells stably expressing human SGLT1; assay type: cell-based; set-up: expressed in transfected cells; host or cells: HEK293; conditions: for pIC50: 2-NBDG uptake, HEK293 stably expressing human SGLT1, read-out: SGLT1 Inhibitory Activity
Protocol: Inhibitory activity testing was performed with reference to a similar method described in document (Acta Pharmaceutica Sinica 2017, 52(6):897-903; Nature Protocols (2007), 2(3), 753-762; Journal of Biochemical and Biophysical Methods (2005), 64(3), 207-215; Diabetes Technology & Therapeutics (2011), 13(7), 743-775).
In this experiment, the in vitro activity assay was evaluated using the uptake of 2-NBDG (2-Deoxy-2-[(7-nitro-2,1,3-benzoxadiazol-4-yl)amino]-D-glucose, CAS NO: 186689-07-6) by human embryonic kidney epithelial cells (HEK293, stably expressing human SGLT1), and the SGLT1 inhibitory activity of the target compound was determined by measuring its half-maximal inhibitory concentration (IC50).
HEK293 cells that can stably express human SGLT1 gene were inoculated into a 96-well clear-bottom black plates containing DMEM medium. The cells were incubated at 37° C., 5% CO2in a cell incubator. The medium in the 96-well plate was aspirated, and the plate was treated with low-glucose serum-free DMEM medium, and washed once with non-specific uptake buffer and once with Na^+-dependent uptake buffer. Uptake buffer containing test compound was added to each well of cells, followed by uptake buffer containing 2-NBDG for glucose uptake, and the cell plate was incubated at 37° C., 5% CO2. The compounds were gradiently diluted. The uptake reaction was stopped by removing the culture medium, and after washing the cells with ice-cold uptake buffer, the washing solution was removed. The cells were lysed by adding NaOH, and the content of 2-NBDG in the cells was detected by a fluorescence microplate reader. The protein concentration of the lysate was measured by BCA method, the uptake of 2-NBDG was quantified by fluorescence intensity/protein content, and the obtained data were analyzed using GraphPad Prism to determine the median inhibitory concentration (IC50) of the compound to be tested.

[4] = Lipid solubility and water solubility compared with Example 5; assay type: physicochemical
[5] = Observation of defecation (loose stools) in rats during OGTT study; assay type: in vivo, SD rats; conditions: 0.012 mg/kg oral gavage, within 48 hours before and after the experiment
Protocol: (§1) Experimental process: the animals were fed a normal diet with consecutive administration for 14 days, and the glucose tolerance test was performed on day 15, blood glucose was detected before administration (−30 min), before giving glucose (0 min), and 10, 30, 60, and 120 min after giving glucose solution, and the defecation of animals was observed.

[6] = test system: blood glucose; assay: Oral glucose tolerance test (OGTT) after consecutive administration in mice; assay type: in vivo; conditions: oral gavage 5 days, OGTT on day 6
Protocol: (§2) • Experimental animals: SPF male mice; • Compound preparation: an appropriate amount of the compounds of Example 5 was weighed, and uniformly suspended with an appropriate amount of 0.5% CMC-Na solution; • Preparation of glucose solution: an appropriate amount of glucose powder was weighed and dissolved with an appropriate amount of pure water; • Administration and dosage: oral gavage; blank vehicle group, high-dose group (1.6 mg/kg), low-dose group (0.12 mg/kg).
(§3) Experimental process: • (1) The mice were fed a high-sugar diet for 6 days, and then grouped (10 mice in each group) to enter the administration stage; • (2) Example compound 5 was administered at 5:00 pm every day from day 1 to day 5, once a day, and then the animals were fed a high-sugar free diet, and the defecation of the animals was observed. • (3) On day 6, oral glucose tolerance test was performed, and glucose solution (2 g/kg) was orally administered. Blood glucose was detected before (0 min) and 10, 30, and 60 min after giving glucose solution, respectively.

[7] = Observation of defecation (loose stools) in mice, day 1 to day 5; assay type: in vivo
Protocol: as §2, §3

[8] = test system: rat feces suspension; assay: Intestinal microbial metabolic stability in rat feces suspension; assay type: in vitro ADME; conditions: for Remaining percentage of compound: rat feces suspension, 37 C
Protocol: Methods: The collected rat feces were processed, and the feces suspension was obtained for the determination of metabolic stability. The mixed reaction system consisting of the rat feces suspension and the compound of Example 5 was incubated at 37 C for 3 h, 6 h, 12 h and 24 h. The compound of Example 5 in the incubation system was analyzed to determine the total amount of remaining compound. Wherein, “+” represents the remaining percentage being: <50%; “++” represents the remaining percentage being: 50% to 70%; “+++” represents the remaining percentage being: 70% to 90%; […].

[9] = test system: blood glucose; assay: Oral glucose tolerance test (OGTT) after continuous administration in rats for 14 days; assay type: in vivo, SD rats; conditions: 0.012 mg/kg oral gavage, OGTT on day 15
Protocol: • Experimental animals: SPF male SD rats; • Compound preparation: an appropriate amount of the compounds of Example 2, Example 3, and Example 5 were weighed, and uniformly suspended with an appropriate amount of 0.5% CMC-Na solution; • Preparation of glucose solution: an appropriate amount of glucose powder was weighed and dissolved with an appropriate amount of pure water; • Dosage and method of administration: 0.012 mg/kg, oral gavage.
as §1

[10] = test system: blood glucose; assay: In vivo hypoglycemic efficacy experiment combined with sitagliptin, STZ-induced type 2 diabetes mouse model; set-up: species or system Balb/C male mice
Protocol: Model establishment: SPF grade Balb/C male mice were used in this experiment, and the establishment of the type 2 diabetes mouse model was induced by intraperitoneal injection of streptozotocin (STZ) supplemented by high-fat and high-sugar diet.
Administration: normal group, model group, low-dose combined administration group (the compound of Example 5 0.02 mg/kg+sitagliptin 20 mg/kg), medium-dose combined administration group (the compound of Example 5 0.06 mg/kg+sitagliptin 20 mg/kg), high-dose combined administration group (the compound of Example 5 0.1 mg/kg+sitagliptin 20 mg/kg), sitagliptin group (20 mg/kg). The normal group and the model group were given the solvent by gavage.

CCOc1ccc(Cc2cc([C@@H]3O[C@H](CO)[C@@H](O)[C@H](O)[C@H]3O)ccc2Cl)cc1 [Dapagliflozin, reference compound]
absorption in vivo after oral administration (in words) [1]: absorbed into the blood
bioavailability [1]: 73%

C#CCN(C)CCNC(=O)CCOCc1ccc(Cc2cc([C@@H]3O[C@H](SC)[C@@H](O)[C@H](O)[C@H]3O)ccc2C)cc1 [Example 7]
pIC50 [2]: > 7.30
absorption in vivo after oral administration (in words) [1]: almost no absorption in vivo
detection in vivo after oral administration (in words) [1]: hardly detected in vivo
bioavailability [1]: < 1.5%

CS[C@H]1O[C@@H](c2ccc(C)c(Cc3ccc(CCCC(=O)NCCN(C)Cc4ccccc4)cc3)c2)[C@H](O)[C@@H](O)[C@@H]1O [Example 4]
activity of inhibiting SGLT1 (in words) [3]: significant activity of inhibiting SGLT1
pIC50 [3]: 9.00

CS[C@H]1O[C@@H](c2ccc(C)c(Cc3ccc(CCCC(=O)NCCN(C)Cc4cn(C5CC5)nn4)cc3)c2)[C@H](O)[C@@H](O)[C@@H]1O
lipid solubility relative to Example 5 [4]: better lipid solubility
water solubility relative to Example 5 [4]: better lipid solubility and water solubility

C#CCN(C)CCNC(=O)CCCc1ccc(Cc2cc([C@@H]3O[C@H](SC)[C@@H](O)[C@H](O)[C@H]3O)ccc2C)cc1 [Example 5]
pIC50 [2]: > 7.30
loose stools in experimental animals [5]: no loose stools were observed
blood glucose level of mice in OGTT ([6]; high-dose group (1.6 mg/kg)): significantly reduce the blood glucose level
blood glucose level of mice in OGTT ([6]; low-dose group (0.12 mg/kg)): significantly reduce the blood glucose level
activity of inhibiting SGLT1 (in words) [3]: significant activity of inhibiting SGLT1
pIC50 [3]: 9.43
number of animals with loose stools ([7]; high dose group (1.6 mg/kg), day 1): 1 animal
loose stools (in words) ([7]; high dose group (1.6 mg/kg), day 2 to day 5): did not have loose stools
Statistics of loose stools in animals ([7]; high-dose group (1.6 mg/kg), Day 1, animals with loose stool/animals in group): 1/10
Statistics of loose stools in animals ([7]; high-dose group (1.6 mg/kg), Day 2): 0/10
Statistics of loose stools in animals ([7]; high-dose group (1.6 mg/kg), Day 3): 0/10
Statistics of loose stools in animals ([7]; high-dose group (1.6 mg/kg), Day 4): 0/10
Statistics of loose stools in animals ([7]; high-dose group (1.6 mg/kg), Day 5): 0/10
Statistics of loose stools in animals ([7]; low-dose group (0.12 mg/kg), Day 1): 0/10
Statistics of loose stools in animals ([7]; low-dose group (0.12 mg/kg), Day 2): 0/10
Statistics of loose stools in animals ([7]; low-dose group (0.12 mg/kg), Day 3): 0/10
Statistics of loose stools in animals ([7]; low-dose group (0.12 mg/kg), Day 4): 0/10
Statistics of loose stools in animals ([7]; low-dose group (0.12 mg/kg), Day 5): 0/10
loose stools (in words) ([7]; low-dose group (0.12 mg/kg), continuous administration for 5 days): did not have loose stools
remaining compound ([8]; incubated with microorganisms in rat feces for about 24 hours): > 70%
Remaining percentage of compound ([8]; incubation 12 h): +++ (the remaining percentage being: 70% to 90%)
Remaining percentage of compound ([8]; incubation 24 h): +++ (the remaining percentage being: 70% to 90%)
absorption in vivo after oral administration (in words) [1]: almost no absorption in vivo
detection in vivo after oral administration (in words) [1]: hardly detected in vivo
bioavailability [1]: < 1.5%
blood sugar level of rats in OGTT [9]: significantly reduce the blood sugar level
dose-effect relationship of blood glucose reduction ([10]; Example 5 0.02, 0.06, 0.1 mg/kg combined with sitagliptin 20 mg/kg): there is a dose-effect relationship
blood glucose level of diabetic model animals ([10]; Example 5 0.02, 0.06 or 0.1 mg/kg combined with sitagliptin 20 mg/kg): significantly reduce the blood glucose level

C#CCN(C)CCNC(=O)CCOc1ccc(Cc2cc([C@@H]3O[C@H](SC)[C@@H](O)[C@H](O)[C@H]3O)ccc2C)cc1 [Example 6]
pIC50 [2]: > 7.30

C#CCN(C)CCNC(=O)C/C=C/c1ccc(Cc2cc([C@@H]3O[C@H](SC)[C@@H](O)[C@H](O)[C@H]3O)ccc2C)cc1 [Example 8]
pIC50 [2]: > 7.30

CS[C@H]1O[C@@H](c2ccc(C)c(Cc3ccc(CCCC(=O)NCCN4CCN(C)CC4)cc3)c2)[C@H](O)[C@@H](O)[C@@H]1O [Example 2]
loose stools in experimental animals [5]: no loose stools were observed
activity of inhibiting SGLT1 (in words) [3]: significant activity of inhibiting SGLT1
pIC50 [3]: 9.01
blood sugar level of rats in OGTT [9]: significantly reduce the blood sugar level

CS[C@H]1O[C@@H](c2ccc(C)c(Cc3ccc(CCCC(=O)NCCN4CCCCC4)cc3)c2)[C@H](O)[C@@H](O)[C@@H]1O [Example 3]
loose stools in experimental animals [5]: no loose stools were observed
activity of inhibiting SGLT1 (in words) [3]: significant activity of inhibiting SGLT1
pIC50 [3]: 9.08
blood sugar level of rats in OGTT [9]: significantly reduce the blood sugar level
